Assay results published in US11324832B2, “Tripartite modulators of endosomal G protein-coupled receptors” (Endosome Therapeutics, Inc., priority 2015, dated 2022).
Where a SMILES comes first, the peptide text is derived from it. Where no end group is shown, it is not given here. [ ]: non-standard residue; d: D form.

Key:
NK1R = NK1R (Rattus norvegicus, UniProt P14600); test: SP-stimulated Ca2+ signaling in HEK-NK1R cells, antagonist mode; type: cell-based; set-up: Full length and truncated 6312 rat HA-NK1R have been described; expressed in transfected cells; host or cells: HEK293 (transient)
Sequence of NK1R (P14600 whole entry, the tested form may be a part): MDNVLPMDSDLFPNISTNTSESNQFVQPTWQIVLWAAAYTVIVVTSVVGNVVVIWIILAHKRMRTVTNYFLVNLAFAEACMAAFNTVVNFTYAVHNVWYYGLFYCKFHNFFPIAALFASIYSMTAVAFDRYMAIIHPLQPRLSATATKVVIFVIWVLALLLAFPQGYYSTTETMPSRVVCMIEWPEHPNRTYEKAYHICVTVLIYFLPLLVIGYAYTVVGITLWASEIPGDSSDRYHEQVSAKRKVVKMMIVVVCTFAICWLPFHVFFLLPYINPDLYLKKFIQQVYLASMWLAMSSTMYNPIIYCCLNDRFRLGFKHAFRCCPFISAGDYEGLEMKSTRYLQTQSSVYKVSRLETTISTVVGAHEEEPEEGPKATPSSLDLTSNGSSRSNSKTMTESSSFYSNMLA
Experimental: [Ca^2+]i was measured as described (Jensen, D. D. et al., J Biol Chem, 2014, 289, 20283-20294). HEK293 cells transiently expressing HA-NK1R or HA-CLR/Myc-RAMP1 were loaded with Fura2-AM (2 μM).

[1] = Stability in human cerebrospinal fluid; type: in vitro ADME; settings: Example 2, expected
Experimental: (§1) To assess stability in cerebrospinal fluid, spantide or Compound 1 (10 μg/ml) was incubated in human cerebrospinal fluid (0-4 h, 37° C.), and then snap frozen. Proteins were precipitated using ACN. To assess stability in the spinal cord, spantide or Compound 1 was injected intrathecally to mice (10 μM, 5 μl, L3/L4). After 3 hours, a spinal cord segment 5 mm on either side the injection site was removed and snap frozen. Tissues were crushed with a glass rod in a mixture of methanol (30 μl) and EDTA/KF (60 μl, 0.1 M EDTA, 4 g/l KF), vortexed and centrifuged to remove lipids. Peptides were extracted from the pellet with 0.5% formic acid in 75% ACN/H2O (100 μl). Samples were analyzed assayed by LC/MS using a Waters Xevo TQ or TQD triple quadrupole mass spectrometer coupled to a Waters UPLC. Peptides were separated by HPLC (Supelco Ascentis Express Peptide ES C18 column, 50×2.1 mm, 2.7 μm) with 0.05% formic acid in H2O and ACN as solvents. Peptides were quantified by comparison to calibration standards (50-50,000 ng/ml).

[2] = Stability in the spinal cord after intrathecal injection to mice; type: in vivo, mouse; settings: 10 μM, 5 μl, spinal cord after 3 hours
Experimental: as §1

[3] = tested on: NK1R-positive neurons in lamina I of the dorsal horn; test: Cell-attached patch clamp recordings in rat spinal cord slices; type: cell-based; settings: SP 1 μM, 2 min
Experimental: To evaluate whether NK1R endosomal signaling mediates this sustained activation, cell-attached patch clamp recordings were made from NKiR-positive neurons in lamina I of the dorsal horn in slices of rat spinal cord. […] These findings support a role for NK1R endocytosis in persistent neuronal excitation.
Parasagittal slices (340-400 μm) were prepared using a vibratome from the lumbar region of the rat spinal cord in ice-cold sucrose-based artificial CSF (sACSF) (mM: 100 sucrose, 63 NaCl, 2.5 KCl, 1.2 NaH2PO4, 1.2 MgCl2, 25 glucose, 25 NaHCO3; 95% O2/5% CO2). Slices were transferred to N-Methyl-D-Glucamine (NMDG)-based recovery ACSF (rACSF) (mM: 93 NMDG, 93 HCl, 2.5 KCl, 1.2 NaH2PO4, 30 NaHCO3, 20 HEPES, 25 glucose, 5 Na ascorbate, 2 thiourea, 3 Na pyruvate, 10 MgSO4, 0.5 CaCl2; 95% O2/5% CO2, 15 min, 34° C.). Slices were transferred to normal ACSF (mM: 125 NaCl, 2.5 KCl, 1.25 NaH2PO4, 1.2 MgCl2, 2.5 CaCl2, 25 glucose, 11 NaHCO3; 95% O2/5% CO2) containing 10 μM MK-801 (45 min, 34° C.), then maintained at RT.
Slices of rat spinal cord were transferred to a recording chamber and superfused with normal ACSF (2 ml·min^−1, 36° C.). […] PS2 was not soluble in the low concentrations of DMSO required for electrophysiology. Large, NKiR-positive, presumed nociceptive lamina I neurons were visually identified as described (Imlach, W. L., et al., Molecular Pharmacology, 2015, 88, 460-428). Spontaneous currents were recorded in cell-attached configuration (Multiclamp 700B, Molecular Devices, Sunnyvale, Calif.), sampled at 10 kHz, high pass filtered at 1 Hz, and capacitatively coupled action potential events were analyzed using Axograph X, V 1.4.4 (Axograph). Patch electrodes (resistance 2.5-3.5 MQ) contained KMES-based internal solution (mM: 105 KMES, 20 NaCl, 5 HEPES, 10 BAPTA, 1.5 MgCl2, 4 MgATP, 0.4 NaGTP, 0.1% biocytin; 285-295 mosmol·l^−1) to facilitate subsequent recordings of action potential properties in whole-cell configuration. Recordings were made in the presence of CNQX (6-cyano-7-nitroquinoxaline-2,3-dione) (10 μM; AMPA/kainate receptor antagonist), picrotoxin (100 μM; GABAA receptor antagonist), strychnine (0.5 μM; glycine and acetylcholine receptor antagonist), and AP5 ((2R)-amino-5-phosphonovaleric acid; (2R)-amino-5-phosphonopentanoate) (100 μM; NMDA receptor antagonist) to minimize presynaptic influences on action potential properties. […] Recordings were sampled at 10 kHz and filtered with a high pass filter at 1 Hz and firing rate was measured in two-minute interval bins. At the end of each cell-attached recording, whole-cell recordings were made in current-clamp mode to confirm retention of normal action potential firing. Data were only included in the analysis if cells had action potential amplitudes that were ≥50 mV above threshold to ensure viable neurons were included. Cells were filled with biocytin and sections were processed to confirm NK1R expression by immunofluorescence. […] The firing time was determined as the duration of the response to last action potential. To assess synaptic transmission, whole-cell configuration recordings were made under control conditions or after exposure to Dy4 or Dy4 inact; a bipolar stimulating electrode was placed at the dorsal root entry zone, and electrically-evoked excitatory postsynaptic currents recorded as described (Imlach, W. L., et al., Molecular Pharmacology, 2015, 88, 460-428).

Gαq = test: BRET of Gαq activation and trafficking in HEK293 cells; type: cell-based; settings: SP 0.1-10 nM, 15 min
Experimental: Since PKC and cAMP signaling via GPCRs depends on heterotrimeric G-proteins, the capacity of SP to activate G-proteins in endosomes of HEK293 cells was examined. BRET was used to determine the proximity of the NK1R and Gαq to Rab5a and Gγ2. SP (0.1-10 nM) decreased NK1R-RLuc8/KRas-Venus BRET, which mirrored the increase in NK1R-RLuc8/Rab5a-Venus BRET (FIG. 3A, B). […] Immunofluorescence and super-resolution microscopy were used to determine whether Gαq co-localized with the NK1R at the plasma membrane or in endosomes of HEK-NK1R cells. After incubation with SP (10 nM) at 4° C., NK1R immunoreactivity (NK1R-IR) and Gαq-IR were colocalized at the plasma membrane. After washing and warming to 37° C. for 15 min, NK1R-IR and Gαq-IR were co-localized with early endosomal antigen 1 (EEA1) (data not shown). Thus, SP activates this G protein complex by its dissociation and recruits Gαq to endosomes.
HEK293 cells were transfected with the following cDNAs: 1 μg NK1R-RLuc8 or 1 μg CLR-RLuc8+1 μg Myc-RAMP1+4 μg KRas-Venus, 4 μg Rab5a-Venus, 4 μg βarr1-YFP, or 4 μg βarr2-YFP; or 1 μg NK1R+0.5 μg Gαq-RLuc8+1 μg Gβ1+4 μg Gγ2-Venus; or 1 μg NK1R+0.5 μg Gαq-RLuc8+1 μg Gβ1+1 μg Gγ2+4 μg Rab5a-Venus. […] BRET ratios were determined using a microplate reader LUMIstar Omega (BMG LabTech) before and after challenge with SP (0.1-10 nM) or vehicle (dH2O).

Compound | IC50 (NK1R) | time stable in human CSF [1] | stability after intrathecal injection to mice [2] | firing of action potentials [3] | Gαq-RLuc8/Gγ2-Venus BRET (Gαq) | Gαq-RLuc8/Rab5a-Venus BRET (Gαq)
CC(C)C[C@H](NC(=O)[C@H](CC(C)C)NC(=O)[C@@H](Cc1c[nH]c2ccccc12)NC(=O)[C@H](Cc1ccccc1)NC(=O)[C@@H](Cc1c[nH]c2ccccc12)NC(=O)[C@H](CCC(N)=O)NC(=O)[C@H](CCC(N)=O)NC(=O)[C@@H]1CCCN1C(=O)[C@H](CCCCN)NC(=O)[C@@H]1CCCN1C(=O)[C@H](N)CCCN=C(N)N)C(N)=O [spantide, ^DArg-Pro-Lys-Pro-Gln-Gln-^DTrp-Phe-^DTrp-Leu-Leu-NH2] (H-[dR]PKPQQ[dW]F[dW]LL-NH2) | 5.89 nM | > 4 h | extensively metabolized | – | – | –
SP: substance P, NK1R agonist used as stimulus (RPKPQQFFGLM-NH2; ends and bridges not checked; UniProt P20366 58-68, looked up) | – | – | – | triggered a rapid onset firing of action potentials that was sustained after washout | decreased Gαq-RLuc8/Gγ2-Venus BRET | increased Gαq-RLuc8/Rab5a-Venus BRET
